“And” between values parts separate entries of the source, which are not always exact repeats. Equal entries are not always repeated. Where two headings read alike, the source gives them in different places.
Assays:
[1] = aggressiveness to the skin by repeated application; type: in vivo
Source text: The method used is the method described in the Official Journal of Apr. 28, 1971 for the analysis of cosmetics and beauty products, and comprises applying 0.5 cc of 2% solution over a period of 1 month to the two zones treated, one normal, the other raw, a control zone being reserved on the hindquarters of the animal.

Proteus vulgaris = assay: bacteriostatic activity (MIC), Proteus vulgaris; type: cell-based; conditions: Proteus vulgaris, 48 h, Table I, 37° C., read-out: MIC
Experimental: (§1) The medium containing the solution to be tested is inoculated in the form of three single striae with a 10^-5 times dilution of a bacterial culture aged 16 to 18 hours grown in salted peptone broth at a temperature of 37° C. After inoculation, the media are stored at 37° C. for 48 hours, after which the bacterial growth is inspected. The MIC (minimum inhibiting concentrations) are expressed in micrograms of pure product per cubic centimeter of gelose medium required for inhibiting the culture (μg/cc). The control substance used is benzalconium chloride.

Pseudomonas aeruginosa = assay: bactericidal activity, Pseudomonas aeruginosa; type: cell-based; conditions: Table II, 2 hours contact, laboratory temperature, read-out: MIC (bactericidal activity)
Experimental: (§2) Bactericidal activity is determined by the following methods: A titrate suspension of bacteria is brought into contact over a period of 2 hours at the temperature of the laboratory with increasing dilutions of the test product. The number of bacteria still alive are counted after passage through a filtering membrane.

[2] = system: spores of B.subtilis var. Niger; assay: sporostatic activity (a), Petri dish dilution; type: cell-based; conditions: for number of colonies (average of 2 tests): approximately 200 spores
Experimental: (a) 1 cc of a suspension of spores of B.subtilis var. Niger containing approximately 200 spores is placed in one Petri dish, whilst 1 cc of a solution containing 3 g/100 cc of the product (mother solution) or of the same mother solution diluted to 1/10th, 1/100th, etc. up to 1/100,000th, are placed in other Petri dishes. Following the addition of a culture medium, the dishes are agitated, cooled and then placed in an oven. The number of colonies obtained are then determined.

Bacillus pyocyaneus [3] = assay: in vitro MIC on 100 strains of Bacillus pyocyaneus; type: cell-based; conditions: Pseudomonas aeruginosa, read-out: minimum inhibiting concentration
Experimental: In vitro tests on the activity of the compound of Example 1 were also carried out so as to determine the activity of that compound on Bacillus pyocyaneus. The results of determining the minimum inhibiting concentration on 100 different strains are as follows: […]

Escherichia coli [4] = assay: bacteriostatic activity (MIC), Escherichia coli; type: cell-based; conditions: for MIC: Escherichia coli, 48 h; for M.I.C.: hydrochloride
Experimental: (§3) The medium containing the solution to be tested is inoculated in the form of three single striae with a 10^-5 times dilution of a bacterial culture aged 16 to 18 hours grown in salted peptone broth at a temperature of 37° C.
(§4) After inoculation, the media are stored at 37° C. for 48 hours, after which the bacterial growth is inspected. The MIC (minimum inhibiting concentrations) are expressed in micrograms of pure product per cubic centimeter of gelose medium required for inhibiting the culture (μg/cc). The control substance used is benzalconium chloride.
(§5) Tests were also carried out to determine the bacteriostatic activity of other compounds according to the invention by the method described above and in comparison with known substances, in particular with benzalconium chloride (compound T in the Tables).

Bacillus pyocyaneus [5] = assay: bactericidal concentration on 6 different strains; type: cell-based
Moraxella glucidolytica = assay: bacteriostatic activity (MIC), Moraxella glucidolytica; type: cell-based; conditions: Moraxella, 48 h, Table I, 37° C., read-out: MIC
Experimental: as §1

spores = assay: sporocidal activity; type: cell-based; conditions: especially above 35° C. and at a pH around 7
Pneumobacille = assay: bacteriostatic activity (MIC), Pneumobacille; type: cell-based; conditions: 48 h, Table I, 37° C., read-out: MIC
Experimental: as §1

Serratia = assay: bacteriostatic activity (MIC), Serratia; type: cell-based; conditions: Serratia, 48 h, Table I, 37° C., read-out: MIC
Experimental: as §1

Bacillus subtilis [6] = assay: bactericidal activity, Bacillus subtilis; type: cell-based; conditions: Table II, 2 hours contact, laboratory temperature, read-out: MIC (bactericidal activity)
Experimental: as §2

ocular irritation = type: in vivo; conditions: 0.1 ml of a 0.5% solution
Experimental: The method used is the method described in the Official Journal of Apr. 21, 1971, page 3863, and comprises applying to the right eye of each animal 0.1 ml of a 0.5% solution. The general total of the results is 0 which confirms the high tolerance of the product mentioned above.

Ps. aeruginosa = assay: in vivo effect on infection of excised wounds in rats; parameters: species or system rats infected with Ps. aeruginosa
Experimental: The activity of the compound of Example 1 was also tested in vivo, in particular the compound was tested for its effect on Bacillus pyocyaneus in the following manner:
Rats are intravenously injected with 1 ml of a 10^8 solution of Ps. aeruginosa. A 20 cm^2 cutaneous excision was then made in the animals.
30 minutes after the injection, the bacteria injected were detected in the vicinity of the wound by the replica method on a solid nutritive medium.
One group of rats was sprayed with the compound of Example 1 (aqueous solution) in the vicinity of the wounds (1 to 3 times daily).
A group of control rats were sprayed with sterile distilled water.

Escherichia coli [7] = assay: bactericidal activity, Escherichia coli; type: cell-based; conditions: Table II, 2 hours contact, laboratory temperature, read-out: MIC (bactericidal activity)
Experimental: as §2

Bacillus subtilis [8] = assay: bacteriostatic activity (MIC), Bacillus subtilis; type: cell-based; conditions: for MIC: Bacillus subtilis, 48 h
Experimental: as §3, §4, §5

[9] = Table I, with 20% of serum, 37° C., 48 hours, read-out: MIC
[10] = Table I, without serum, 37° C., 48 hours, read-out: MIC
[11] = Table VI, bacteriostase containing 20% of serum, read-out: M.I.C.
[12] = Table VI, bacteriostase without serum, read-out: M.I.C.
[13] = aqueous solution sprayed near wounds, 1 to 3 times daily

CCCCCCCCCCOCC(O)CN.Cl (stereo not drawn) [Compound 1, 3-decyloxy-2-hydroxy-1-aminopropane hydrochloride]
histological examination of skin ([1]; 0.5 cc of 2% solution over 1 month): did not reveal any significant modification | local tolerance (skin) ([1]; 0.5 cc of 2% solution over 1 month, normal and raw zones): Good local tolerance | haematological examination ([1]; blood from the ear vein on completion of the test): normal blood formula | MIC (Proteus vulgaris; with 20% of serum): 150 µg/mL | MIC (Proteus vulgaris; without serum): 40 µg/mL | MBC (Pseudomonas aeruginosa): 50 µg/mL | number of colonies (average of 2 tests) ([2]; 0 dilutions to 1/10 (mother solution 3 g/100 cc)): 0 | number of colonies (average of 2 tests) ([2]; 1 dilution to 1/10 of mother solution 3 g/100 cc): 0 | number of colonies (average of 2 tests) ([2]; 2 dilutions to 1/10 of mother solution 3 g/100 cc): 18 | number of colonies (average of 2 tests) ([2]; 3 dilutions to 1/10 of mother solution 3 g/100 cc): > 200 | number of colonies (average of 2 tests) ([2]; 4 dilutions to 1/10 of mother solution 3 g/100 cc): > 200 | number of colonies (average of 2 tests) ([2]; 5 dilutions to 1/10 of mother solution 3 g/100 cc): > 200 | MIC ([2]; Bacillus subtilis, taking into account the dilution by the gelose culture medium, from Table III, read-out: concentration still showing sporostatic activity): 20 µg/mL | MIC (Bacillus pyocyaneus [3]; 10 of 100 strains): 100 µg/mL | MIC (Bacillus pyocyaneus [3]; 20 of 100 strains): 25 µg/mL | MIC (Bacillus pyocyaneus [3]; 70 of 100 strains): 50 µg/mL | MIC (Escherichia coli [4]; [9]): 75 µg/mL | MIC (Escherichia coli [4]; [10]): 20 µg/mL | MIC (Escherichia coli [4]; [11]): 60 µg/mL | MIC (Escherichia coli [4]; [12]): 20 µg/mL | M.I.C. (Escherichia coli [4]; Table VI, bacteriostase containing 20% of serum): 80 μg/cc and 75 μg/cc and 100 μg/cc | M.I.C. (Escherichia coli [4]; Table VI, bacteriostase without serum): 25 μg/cc and 40 μg/cc | bactericidal concentration (Bacillus pyocyaneus [5]): very similar to the MIC | MIC (Moraxella glucidolytica; with 20% of serum): 75 µg/mL | MIC (Moraxella glucidolytica; without serum): 40 µg/mL | sporocidal activity (spores): positive | MIC (Pneumobacille; with 20% of serum): 75 µg/mL | MIC (Pneumobacille; without serum): 35 µg/mL | MIC (Serratia; with 20% of serum): 75 µg/mL | MIC (Serratia; without serum): 20 µg/mL | MBC (Bacillus subtilis [6]): 50 µg/mL | ocular irritation, general total of the results (ocular irritation): 0 | number of colonies in positive cultures in relation to control rats (Ps. aeruginosa; [13]): only a very small number of colonies | replica cultures totally negative (Ps. aeruginosa; [13]): 75% | local tolerance (Ps. aeruginosa; rat, in vivo): good | healing process (Ps. aeruginosa; sprayed near wounds, 1 to 3 times daily): normal | MBC (Escherichia coli [7]): 50 µg/mL | MIC (Bacillus subtilis [8]; [9]): 50 µg/mL | MIC (Bacillus subtilis [8]; [10]): 30 µg/mL | MIC (Bacillus subtilis [8]; [11]): 60 µg/mL | MIC (Bacillus subtilis [8]; [12]): 15 µg/mL | M.I.C. (Bacillus subtilis [8]; Table VI, bacteriostase containing 20% of serum, hydrochloride): 50 μg/cc and 40 μg/cc
